Reference: patent US20110046130A1, “TETRAHYDRONAPHTHYRIDINES AND AZA DERIVATIVES THEREOF AS HISTAMINE H3 RECEPTOR ANTAGONISTS” (Evotec AG, priority 2008, published 2011)
Each block holds one compound with its values, some of them ahead of it.

Target: T1, human H3 receptors (Homo sapiens, UniProt Q9Y5N1)
T1 construct: host or cells: CHO-K1
Experiment: cAMP quantification protocol for human H3 receptor testing
Type: cell-based
Conditions: inhibition of agonist-induced (100 nM histamine, 10 μM forskolin) decrease of intracellular cAMP; CHO-K1 cell line expressing human H3 receptors; read-out: Potency range (IC50 values)
Description: CHO-K1 cell line expressing human H3 receptors were purchased from Euroscreen (Gosselies, Belgium, Cat. no.: ES-392-C)
Human H3 receptor-expressing cell-lines were grown in Ham's F12 [Sigma, Cat. no. N6658], supplemented with 10% FBS [Sigma, Cat. no. F9665], 400 μg/ml G418 [Sigma, Cat. no. N1876] and 250 μg/ml Zeocin [Invitrogen, Cat. no. 46-0509]) according to the protocol provided by Euroscreen.
cAMP Quantification Protocol for Human H3 Receptor Testing
The assay measures the ability of test compounds to inhibit Histamine receptor agonist-induced decrease of intracellular free cAMP (receptor is Gi coupled).
Specifically, a cAMP quantification assay system from DiscoveRx (cAMP XS+; Cat. no. 90-0075) was used.
For the cAMP assay, confluent cells were detached from the culture vessels with 1× trypsin-EDTA solution (Sigma), and seeded into 384-well Costar plates (white, clear bottom, Cat. no. 3707) at a density of 10,000 cells per well. Cells were seeded in a volume of 50 μl in medium without antibiotics and incubated overnight in a humidified atmosphere with 5% CO2 at 37° C. The cAMP assay was performed according to the protocol provided by DiscoveRx.
The cell culture medium was removed and the cells washed once with PBS (50 μl per well). The plates were emptied by inversion and 7.5 μl/well of compound in PBS (containing 1 mM IBMX and 0.03% BSA) were added and incubated for 30 min at 37° C.
Subsequent 7.5 μl/well specific agonist solution was added and the plates for another 30 min incubated at 37° C.
The following agonist solution is used:
100 nM histamine, 10 μM forskolin in PBS (containing 1 mM IBMX and 0.03% BSA)
After the incubation with the agonist, 5 μl/well cAMP XS antibody solution was added followed by 20 μl/well Gal/EII/Lysis(1:5:19)+ED (1:1). The plates were incubated for one hour at room temperature and afterwards 20 μl/well EA reagent was added. The luminescence was developed for approximately three hours at room temperature and the plates were read out using a ‘BMG Novostar’ plate reader.
Test compounds were assayed at 8 concentrations in triplicate. Serial 10-fold dilutions in 100% DMSO were made at a 100-times higher concentration than the final concentration and then diluted with a 2 step protocol in assay buffer to reach the required assay concentrations and 1% DMSO.

T1 sequence (Q9Y5N1 whole entry): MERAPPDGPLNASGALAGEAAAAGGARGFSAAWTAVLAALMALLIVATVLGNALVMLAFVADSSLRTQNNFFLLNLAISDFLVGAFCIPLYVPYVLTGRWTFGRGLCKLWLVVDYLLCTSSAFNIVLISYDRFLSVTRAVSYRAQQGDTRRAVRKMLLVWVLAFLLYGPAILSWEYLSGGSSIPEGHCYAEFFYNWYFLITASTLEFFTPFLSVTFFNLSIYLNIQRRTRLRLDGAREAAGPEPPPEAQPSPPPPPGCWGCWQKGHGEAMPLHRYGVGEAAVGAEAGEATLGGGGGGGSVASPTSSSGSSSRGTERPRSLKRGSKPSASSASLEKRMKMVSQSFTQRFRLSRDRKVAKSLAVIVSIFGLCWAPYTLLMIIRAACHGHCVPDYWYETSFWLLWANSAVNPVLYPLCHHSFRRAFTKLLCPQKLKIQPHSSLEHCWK

IC50: 100 to 500 nM
Compound: O=C1CCCC2c3ccc(O[C@@H]4CCN(C5CCC5)C4)nc3CCN12 (mixture of isomers) [Example 16, 3-{[(3R)-1-cyclobutylpyrrolidin-3-yl]oxy}-5,6,9,10,11,11a-hexahydro-8H-pyrido[2,1-f][1,6]naphthyridin-8-one]

IC50: 500 to 5000 nM
Compound: O=C1CCCC2c3ccc(O[C@H]4CCN(C5CCC5)C4)nc3CCN12 (mixture of isomers) [Example 17, 3-{[(3S)-1-cyclobutylpyrrolidin-3-yl]oxy}-5,6,9,10,11,11a-hexahydro-8H-pyrido[2,1-f][1,6]naphthyridin-8-one]

IC50: < 100 nM
Compound: CN1CCc2nc(OC3CCN(C4CCCC4)CC3)ccc2C1 [Example 2, 2-[(1-Cyclopentylpiperidin-4-yl)oxy]-6-methyl-5,6,7,8-tetrahydro-1,6-naphthyridine]

IC50: < 100 nM
Compound: O=C1CCCC2c3ccc(OC4CCN(C5CCC5)CC4)nc3CCN12 (stereo not drawn) [Example 14, 3-[(1-Cyclobutylpiperidin-4-yl)oxy]-5,6,9,10,11,11a-hexahydro-8H-pyrido[2,1-f][1,6]naphthyridin-8-one]

IC50: < 100 nM
Compound: CC(C)N1CCC(Oc2ccc3c(n2)CCN2C(=O)CCCC32)CC1 (stereo not drawn) [Example 15, 3-{[1-(1-methylethyl)piperidin-4-yl]oxy}-5,6,9,10,11,11a-hexahydro-8H-pyrido[2,1-f][1,6]naphthyridin-8-one]

IC50: < 100 nM
Compound: O=C1CCCC2c3ccc(OCCCN4CCCC4)nc3CCN12 (stereo not drawn) [Example 18, 3-(3-pyrrolidin-1-ylpropoxy)-5,6,9,10,11,11a-hexahydro-8H-pyrido[2,1-f][1,6]naphthyridin-8-one]

IC50: < 100 nM
Compound: O=C1CCCC2c3ccc(OCCCN4CCCCC4)nc3CCN12 (stereo not drawn) [Example 19, 3-(3-piperidin-1-ylpropoxy)-5,6,9,10,11,11a-hexahydro-8H-pyrido[2,1-f][1,6]naphthyridin-8-one]

IC50: 500 to 5000 nM
Compound: O=C1CCCC2c3ccc(OCCCN4CCOCC4)nc3CCN12 (stereo not drawn) [Example 20, 3-(3-morpholin-4-ylpropoxy)-5,6,9,10,11,11a-hexahydro-8H-pyrido[2,1-f][1,6]naphthyridin-8-one]

IC50: 100 to 500 nM
Compound: O=C1CCCC2c3ccc(O[C@H]4CCN(C5CCCC5)C4)nc3CCN12 (stereo partly drawn) [Example 21, 3-{[(3S)-1-cyclopentylpyrrolidin-3-yl]oxy}-5,6,9,10,11,11a-hexahydro-8H-pyrido[2,1-f][1,6]naphthyridin-8-one]

IC50: < 100 nM
Compound: O=C1CCCC2c3ccc(OC4CCN(C5CCCCC5)CC4)nc3CCN12 (stereo not drawn) [Example 22, 3-[(1-Cyclohexylpiperidin-4-yl)oxy]-5,6,9,10,11,11a-hexahydro-8H-pyrido[2,1-f][1,6]naphthyridin-8-one]

IC50: 500 to 5000 nM
Compound: CN1CCC(Oc2ccc3c(n2)CCN2C(=O)CCCC32)CC1 (stereo not drawn) [Example 23, 3-[(1-Methylpiperidin-4-yl)oxy]-5,6,9,10,11,11a-hexahydro-8H-pyrido[2,1-f][1,6]naphthyridin-8-one]

IC50: 500 to 5000 nM
Compound: O=C1CCCC2c3ccc(OCCN4CCCCC4)nc3CCN12 (stereo not drawn) [Example 24, 3-(2-piperidin-1-ylethoxy)-5,6,9,10,11,11a-hexahydro-8H-pyrido[2,1-f][1,6]naphthyridin-8-one]

IC50: < 100 nM
Compound: O=C1CCCC2c3ccc(OC4CCN(C5CCCC5)CC4)nc3CCN12 (stereo not drawn) [Example 26, 3-[(1-Cyclopentylpiperidin-4-yl)oxy]-5,6,9,10,11,11a-hexahydro-8H-pyrido[2,1-f][1,6]naphthyridin-8-one]

IC50: < 100 nM
Compound: O=C1CCC2c3ccc(OC4CCN(C5CCC5)CC4)nc3CCN12 (stereo not drawn) [Example 27, 3-[(1-Cyclobutylpiperidin-4-yl)oxy]-5,9,10,10a-tetrahydropyrrolo[2,1-f][1,6]naphthyridin-8(6H)-one]

IC50: < 100 nM
Compound: O=C1CCC2c3ccc(OC4CCN(C5CCCC5)CC4)nc3CCN12 (stereo not drawn) [Example 28, 3-[(1-Cyclopentylpiperidin-4-yl)oxy]-5,9,10,10a-tetrahydropyrrolo[2,1-f][1,6]naphthyridin-8(6H)-one]

IC50: < 100 nM
Compound: N#Cc1cc2c(nc1OC1CCN(C3CCC3)CC1)CCN1C(=O)CCCC21 (stereo not drawn) [Example 29, 3-[(1-Cyclobutylpiperidin-4-yl)oxy]-8-oxo-5,8,9,10,11,11a-hexahydro-6H-pyrido[2,1-f][1,6]naphthyridine-2-carbonitrile]

IC50: < 100 nM
Compound: O=C1CCCC2c3ccc(OC4CCN(CC5CC5)CC4)nc3CCN12 (stereo not drawn) [Example 33, 3-{[1-(cyclopropylmethyl)piperidin-4-yl]oxy}-5,6,9,10,11,11a-hexahydro-8H-pyrido[2,1-f][1,6]naphthyridin-8-one]

More lines, now with the values behind:

Compound: CN1CCc2nc(OC3CCN(C4CCC4)CC3)ccc2C1 [Example 1, 2-[(1-Cyclobutylpiperidin-4-yl)oxy]-6-methyl-5,6,7,8-tetrahydro-1,6-naphthyridine]
IC50: < 100 nM

Compound: CN1CCc2nc(O[C@@H]3CCN(C4CCCC4)C3)ccc2C1 [Example 3, 2-{[(3R)-1-Cyclopentylpyrrolidin-3-yl]oxy}-6-methyl-5,6,7,8-tetrahydro-1,6-naphthyridine]
IC50: 100 to 500 nM

Compound: CN1CCc2nc(O[C@H]3CCN(C4CCCC4)C3)ccc2C1 [Example 4, 2-{[(3S)-1-Cyclopentylpyrrolidin-3-yl]oxy}-6-methyl-5,6,7,8-tetrahydro-1,6-naphthyridine]
IC50: 100 to 500 nM

Compound: CN1CCc2nc(O[C@@H]3CCN(C4CCC4)C3)ccc2C1 [Example 5, 2-{[(3R)-1-Cyclobutylpyrrolidin-3-yl]oxy}-6-methyl-5,6,7,8-tetrahydro-1,6-naphthyridine]
IC50: 100 to 500 nM

Compound: CN1CCc2nc(O[C@H]3CCN(C4CCC4)C3)ccc2C1 [Example 6, 2-{[(3S)-1-Cyclobutylpyrrolidin-3-yl]oxy}-6-methyl-5,6,7,8-tetrahydro-1,6-naphthyridine]
IC50: 500 to 5000 nM

Compound: CN1CCc2nc(OCCCN3CCCC3)ccc2C1 [Example 7, 6-Methyl-2-(3-pyrrolidin-1-ylpropoxy)-5,6,7,8-tetrahydro-1,6-naphthyridine]
IC50: < 100 nM

Compound: CC(C)N1CCC(Oc2ccc3c(n2)CCN(C)C3)CC1 [Example 8, 6-Methyl-2-{[1-(1-methylethyl)piperidin-4-yl]oxy}-5,6,7,8-tetrahydro-1,6-naphthyridine]
IC50: < 100 nM

Compound: CN1CCC(Oc2ccc3c(n2)CCN(C)C3)CC1 [Example 9, 6-Methyl-2-[(1-methylpiperidin-4-yl)oxy]-5,6,7,8-tetrahydro-1,6-naphthyridine]
IC50: 500 to 5000 nM

Compound: CC(C)N1CCC(Oc2nc3c(cc2C#N)CN(C)CC3)CC1 [Example 10, 6-Methyl-2-{[1-(1-methylethyl)piperidin-4-yl]oxy}-5,6,7,8-tetrahydro-1,6-naphthyridine-3-carbonitrile]
IC50: < 100 nM

Compound: CN1CCc2nc(OC3CCN(C4CC4)CC3)c(C#N)cc2C1 [Example 11, 2-[(1-Cyclopropylpiperidin-4-yl)oxy]-6-methyl-5,6,7,8-tetrahydro-1,6-naphthyridine-3-carbonitrile]
IC50: < 100 nM

Compound: CN1CCc2nc(OC3CCN(C4CCC4)CC3)c(C#N)cc2C1 [Example 12, 2-[(1-Cyclobutylpiperidin-4-yl)oxy]-6-methyl-5,6,7,8-tetrahydro-1,6-naphthyridine-3-carbonitrile]
IC50: < 100 nM

Compound: CN1CCc2nc(OC3CCN(C4CCC4)CC3)ncc2C1 [Example 13, 2-[(1-Cyclobutylpiperidin-4-yl)oxy]-6-methyl-5,6,7,8-tetrahydropyrido[4,3-d]pyrimidine]
IC50: < 100 nM

Compound: O=C1CCCC2c3ccc(OCCCCN4CCCCC4)nc3CCN12 (stereo not drawn) [Example 25, 3-(4-piperidin-1-ylbutoxy)-5,6,9,10,11,11a-hexahydro-8H-pyrido[2,1-f][1,6]naphthyridin-8-one]
IC50: 100 to 500 nM

Compound: CC(C)N1CCC(Oc2nc3c(cc2C#N)C2CCCC(=O)N2CC3)CC1 (stereo not drawn) [Example 30, 3-{[1-(1-methylethyl)piperidin-4-yl]oxy}-8-oxo-5,8,9,10,11,11a-hexahydro-6H-pyrido[2,1-f][1,6]naphthyridine-2-carbonitrile]
IC50: < 100 nM

Compound: CN(c1nc2c(cc1C#N)C1CCCC(=O)N1CC2)C1CCN(C2CCC2)CC1 (stereo not drawn) [Example 31, 3-[(1-cyclobutylpiperidin-4-yl)(methyl)amino]-8-oxo-5,8,9,10,11,11a-hexahydro-6H-pyrido[2,1-f][1,6]naphthyridine-2-carbonitrile]
IC50: < 100 nM

Compound: CC(C)N1CCC(N(C)c2ccc3c(n2)CCN2C(=O)CCCC32)CC1 (stereo not drawn) [Example 32, 3-{methyl[1-(1-methylethyl)piperidin-4-yl]amino}-5,6,9,10,11,11a-hexahydro-8H-pyrido[2,1-f][1,6]naphthyridin-8-one]
IC50: < 100 nM
